Assay results as given in US8906829B2, “Synergistic algicidal compositions including hydrazone derivatives and copper” (Dow AgroSciences LLC, priority 2010, dated 2014).

Experiments:
[1] = test system: Synechocystis sp. strain 6803; experiment: Growth inhibition of Synechocystis by hydrazones and isolated metal-hydrazone complexes, BG-11 Cu minus medium (Example 12); type: cell-based; details: for Complex % Inhn. / inhibition of growth at 0.05 µg/mL: Test Concn. 0.05 μg/ml
Protocol: In vitro toxicity assays against the cyanobacterium (blue-green alga) Synechocystis sp. strain 6803 were conducted using BG-11 medium except that copper micronutrient, normally included as CuSO4.5H2O, was omitted. The medium, termed BG-11 Cu minus, was prepared by dissolving 1.5 g NaNO3, 40 mg K2HPO4, 6 mg citric acid, 1 mg Na2EDTA and 20 mg Na2CO3 in 1 liter of milli Q water and treating the solution with 0.5 g Chelex 100 resin (Bio-Rad Analytical grade, 50-100 mesh, sodium form, cat#142-2822) by stifling at room temperature for 1 h. 900 mL were decanted and 67.5 mg MgSO4.7H2O, 32.4 mg […], 5.4 mg ferric ammonium citrate and 0.9 mL trace metal mix A5 without copper (2.86 g H3BO3, 1.81 g MnCl2.4H2O, 222 mg ZnSO4.7H2O, 390 mg Na2MoO4.2H2O and Co(NO3)2.6H2O in 1 L Milli Q water) was added. The pH was adjusted to 7.1 and the medium was filter-sterilized. Medium containing copper (BG-11 Cu plus) was prepared by adding CuCl2.2H2O to the BG-11 Cu minus medium at 0.2 μM. Test compounds were dissolved in dimethylsulfoxide (DMSO) at 2 mg/mL then appropriate dilutions in BG-11 Cu minus and BG-11 Cu plus media were prepared in sterilized microcentrifuge tubes. 100 μL aliquots were dispensed into flat-bottomed 96-well microtiter plates. Synechocystis was maintained under 24 h of light on BG-11 agar plates at 27° C. A loopful of cells was added to 50 mL of BG-11 Cu minus growth medium and the culture was incubated with shaking at 200 rpm at 27° C. for 24 h. The culture (10 to 20 mL aliquot) was centrifuged in a bench centrifuge at 2400 rpm for 2 min. The resulting cell pellet was resuspended in 5 mL sterile milli Q water (which had been treated with Chelex 100 resin using 0.5 g resin per liter of water by stirring at room temperature for 1 h), and recentrifuged. The cells were resuspended in BG-11 Cu minus medium, and the suspension adjusted to 4×10^5 spores per mL. Microtiter plates containing compounds as described above were inoculated with 100 μL of this cell suspension and the plates incubated at 27° C. for 72 h before assessing algal growth by measuring light scattering in a NepheloStar plate reader. Growth inhibition was determined by comparing growth in the presence of test compound with growth in control wells lacking test compound. Hydrazones and their isolated metal complexes were compared with respect to their in vitro activity toward C. reinhardtii and the cyanobacterium (blue-green alga) Synechocystis sp. strain 6803. Metal complexes of hydrazones were prepared by precipitation from ethanol with various metal salts at 1:1, 2:1 or 3:1 molar ratios, as described in general by Ainscough, Brodie, Dobbs, Ranford, and Waters (Inorganica Chimica Acta 1998, 267, 27-38, which is expressly incorporated by reference herein). In vitro assays against Synechocystis were conducted as described in Example 11 using BG-11 Cu minus medium. Growth inhibition was determined by comparing growth in the presence of test compound with growth in control wells lacking test compound.

[2] = test system: C. reinhardtii CC-1928; experiment: Effect of copper on activity of hydrazones: in vitro growth inhibition of C. reinhardtii in TAP Cu minus / TAP Cu plus medium (Example 10); type: cell-based, Chlamydomonas reinhardtii; details: for inhibition of growth at 1 µg/mL: Chlamydomonas reinhardtii, TAP Cu minus medium, read-out: % Inhn. Minus Copper Observed; for inhibition of growth at 1 µg/mL / % Inhn. Plus Copper Observed: test compound 1 μg/mL, 48 h; for % Inhn. Plus Copper Observed: TAP Cu plus medium (CuCl2); for % Inhn. by copper chloride alone: CuCl2, 10 μM, TAP Cu plus vs TAP Cu minus without test compound, across experiments
Method in brief: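 Washed cells (suspension 2×10^5 spores per mL) added to compound at 1 μg/mL in Chelex-treated TAP Cu minus or TAP Cu plus (20 μM CuCl2). After 48 h at 27 °C, growth read by light scattering; % inhibition vs compound-free wells, plus-Cu predicted values by Colby formula from minus-Cu data.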

[3] = Synechocystis, read-out: Hydrazone % Inhn.

Row | SMILES | inhibition of growth at 1 µg/mL [2] [%] | % Inhn. Plus Copper Observed [2] [%] | further results
1 | O=C(N/N=C/c1cc(Cl)cc(Cl)c1O)c1ccccc1.O=C(N/N=C/c1cc(Cl)cc(Cl)c1O)c1ccccc1.[Cl-].[Cl-].[Cu+2] [Compound 76] |  |  | Complex % Inhn. [1]: 96%
2 | Cc1ccccc1C(=O)N/N=C/c1cc(Cl)cc(Cl)c1O [Compound 63] | -18 | 93 | inhibition of growth at 0.05 µg/mL [1, 3]: 23%
3 | C/C(=N\NC(=O)c1ccc(C)cc1)c1cc(Cl)cc(Cl)c1O [Compound 26] | 5 | 94 | inhibition of growth at 0.05 µg/mL [1, 3]: 50%
4 | O=C(N/N=C/c1ccc(Cl)c(Cl)c1O)c1ccccc1 [Compound 21] | 6 | 94 | 
5 | O=C(N/N=C/c1cccc(Cl)c1O)c1ccc(Cl)cc1 [Compound 52] | -4 | 88 | inhibition of growth at 0.05 µg/mL [1, 3]: 45%
6 | C/C(=N\NC(=O)c1ccccc1)c1cc(Cl)cc(Cl)c1O [Compound 6] | 13 | 98 | inhibition of growth at 0.025 µg/mL ([1]; Synechocystis, Test Concn. 0.025 μg/ml, read-out: Hydrazone % Inhn.): 70%
7 | C/C(=N\NC(=O)c1ccc(Cl)cc1)c1cc(Cl)cc(Cl)c1O [Compound 12] | 4 | 96 | 
8 | O=C(NN=Cc1cc(Cl)cc(Cl)c1O)c1ccccc1.O=C(NN=Cc1cc(Cl)cc(Cl)c1O)c1ccccc1.[Cl-].[Cl-].[Zn+2] [Compound 78] |  |  | Complex % Inhn. [1]: 59%
9 | C/C(=N\NC(=O)c1cccc(C)c1)c1cc(Cl)cc(Cl)c1O [Compound 25, 3-methyl-benzoic acid [1-(3,5-dichloro-2-hydroxyphenyl)-ethylidene]-hydrazide] | 33 | 95 | 
10 | O=C(N/N=C/c1cc(Cl)cc(Cl)c1O)c1ccccc1.O=C(N/N=C/c1cc(Cl)cc(Cl)c1O)c1ccccc1.O=S(=O)([O-])[O-].[Cu+2] [Compound 74] |  |  | Complex % Inhn. [1]: 95%
11 | O=C(N/N=C/c1cc(Cl)cc(Cl)c1O)c1ccccc1.O=C(N/N=C/c1cc(Cl)cc(Cl)c1O)c1ccccc1.[Cl-].[Cl-].[Mn+2] [Compound 77] |  |  | Complex % Inhn. [1]: 35%
12 | O=C(N/N=C/c1cc(C(F)(F)F)cc(C(F)(F)F)c1O)c1ccc(Cl)cc1 [Compound 32] | 21 | 97 | inhibition of growth at 0.05 µg/mL [1, 3]: 68%
13 | O=C(N/N=C/c1cc(Cl)cc(Cl)c1O)c1ccccc1O [Compound 7] | 29 | 94 | inhibition of growth at 0.0125 µg/mL ([1]; Synechocystis, Test Concn. 0.0125 μg/ml, read-out: Hydrazone % Inhn.): 62%
14 | CC(=O)[O-].CC(=O)[O-].O=C(N/N=C/c1cc(Cl)cc(Cl)c1O)c1ccccc1.O=C(N/N=C/c1cc(Cl)cc(Cl)c1O)c1ccccc1.[Cu+2] [Compound 73] |  |  | Complex % Inhn. [1]: 97%
15 | [Cl][Cu][Cl] [CuCl2, Copper chloride, reference compound] |  |  | % Inhn. by copper chloride alone [2]: −11.7 ± 6.0%; % Inhn. by copper chloride alone ([2]; listed as Copper chloride): slight enhancement of growth
16 | O=C(N/N=C/c1c(C(F)(F)F)ccc(Cl)c1O)c1ccc(Cl)cc1 [Compound 56] | 11 | 97 | 
17 | O=C(N/N=C/c1cc(Cl)cc(Br)c1O)c1ccccc1O [Compound 18] | 13 | 95 | 
18 | O=C(N/N=C/c1cc(Cl)cc(C(F)(F)F)c1O)c1ccccc1 [Compound 27] | 30 | 96 | inhibition of growth at 0.05 µg/mL [1, 3]: 41%
19 | O=C(N/N=C/c1cc(Cl)cc(Cl)c1O)c1ccccc1 [Compound 1] | 16 | 96 | inhibition of growth at 0.05 µg/mL [1, 3]: 35%
20 | O=C(N/N=C/c1cc(Cl)cc(Br)c1O)c1ccccc1 [Compound 14] | 6 | 97 | 
21 | CC(=O)[O-].CC(=O)[O-].O=C(N/N=C/c1cc(Cl)cc(Cl)c1O)c1ccccc1.[Cu+2] [Compound 72] |  |  | Complex % Inhn. [1]: 98%
22 | O=C(N/N=C/c1cc(Cl)cc(Br)c1O)c1ccc(Cl)cc1 [Compound 15] | 11 | 97 | 
23 | O=C(N/N=C/c1c(Cl)ccc(Cl)c1O)c1ccc(Cl)cc1 [Compound 45] | 9 | 96 | 
24 | O=C(N/N=C/c1cc(Cl)cc(Cl)c1O)c1ccccc1.[Cl-].[Cl-].[Cu+2] [Compound 75] |  |  | Complex % Inhn. [1]: 97%
